{"source": "patent EP3173487A1", "about": "(priority 2015, dated 2017)", "origin": "cited, not measured here"}
{"tested_on": "haloalkane dehalogenases", "settings": "pH 8.6"}
{"compound": "BrCC1CCCCC1", "note": "[(bromomethyl)cyclohexane]", "classification as substrate of the analyzed haloalkane dehalogenases": "poor"}
{"compound": "CCCCI", "note": "[1-iodobutane]", "classification as substrate of the analyzed haloalkane dehalogenases": "universal"}
{"compound": "ClC1CCCCC1", "note": "[chlorocyclohexane]", "classification as substrate of the analyzed haloalkane dehalogenases": "poor"}
{"compound": "BrCCBr", "note": "[1,2-dibromoethane]", "classification as substrate of the analyzed haloalkane dehalogenases": "universal"}
{"compound": "CCCCBr", "note": "[1-bromobutane]", "classification as substrate of the analyzed haloalkane dehalogenases": "universal"}
{"compound": "N#CCCCBr", "note": "[4-bromobutanenitrile]", "classification as substrate of the analyzed haloalkane dehalogenases": "universal"}
{"compound": "ClCC(Cl)CCl", "note": "[1,2,3-trichloropropane]", "classification as substrate of the analyzed haloalkane dehalogenases": "poor"}
{"compound": "CCCI", "note": "[1-iodopropane]", "classification as substrate of the analyzed haloalkane dehalogenases": "universal"}
{"compound": "CC(Cl)CCl", "note": "(stereo not drawn) [1,2-dichloropropane]", "classification as substrate of the analyzed haloalkane dehalogenases": "poor"}
